Holding throughout (type): cell-based
Experiment [1] has as its system MV-4-11 cells. The experiment is described as follows: Anti proliferative activity in MV-4-11 cells by Cell Titer Glo (Promega) assay. The settings on record: Homo sapiens, MV4-11, 72 h, 3 days, CellTiter-Glo. In short, it runs like this:
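MV-4-11 cells in complete DMEM were exposed to compound for 3 days in triplicate, final DMSO ≤0.3%. Viability was read by CellTiter-Glo ATP luminescence, and % inhibition was taken relative to the DMSO control. EC50 was derived from concentration-response curves.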

The test system of experiment [2] is SK-MEL-5 cells. Description: Anti proliferative activity in SK-MEL-5 cells by Cell Titer Glo (Promega) assay. The settings on record: Homo sapiens, retreatment on Day 4, terminated on day 8, CellTiter-Glo. In short, it runs like this:
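SK-MEL-5 cells treated with 9-point 3-fold dilution series, re-dosed on day 4, read on day 8 by CellTiter-Glo luminescence. EC50 derived from percent proliferation inhibition versus concentration.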
(ATP-based viability assays read luminescence as a measure of living cells.)

Experiment [3] addresses T1, SMARCA2 (Homo sapiens, UniProt P51531).
T1 construct: endogenous in cells; host or cells: MV-4-11 (CRL-9591)
Description: SMARCA2 degradation in MV-4-11 cells by Western blot. The settings on record: MV4-11, 16 h, at 100 nM, vs DMSO, read-out: Percent degradation SMARCA2. The protocol: (§1) Example-P3: Determination of SMARCA2 and SMARCA4 Degradation in MV-4-11 Cells by Western Blot
(§2) MV-4-11 (CRL-9591™) cells were plated in 6 well plates using complete Iscove's Modified Dulbecco's Medium. On the third day, compounds of present invention were added to cells from 10 mM stocks made in DMSO (Sigma Cat no. D2650). Each concentration of compound was tested with DMSO not exceeding final percentage of 0.1 in the cells. Cells were incubated with the compound for 16 hours followed by harvesting with 1×RIPA lysis buffer (Thermo Fischer, catalogue number #89900) containing protease inhibitor cocktail (Sigma catalogue number #P-8340). Equal amount of protein was loaded on SDS PAGE gel for electrophoresis. Western blot was carried out for detection of either SMARCA2 (Cell signalling technologies, catalogue number #11966) or SMARCA4 antibody (Cell signalling technologies, catalogue number #52251). Beta-Tubulin antibody (Cell signalling technologies, catalogue number #86298) was used as loading control. Percentage of SMARCA2 or SMARCA4 degradation was calculated using formula % Degradation=100−(normalized band intensity in treated sample/normalized band intensity in DMSO sample)*100. Here, “ND” refers to Not determined.
(In western blotting, separated proteins are transferred to a membrane and probed.)

Experiment [4] concerns the target T2, SMARCA4 (Homo sapiens, UniProt P51532).
T2 construct: endogenous in cells; host or cells: MV-4-11 (CRL-9591)
The experiment is described as follows: SMARCA4 degradation in MV-4-11 cells by Western blot. The settings on record: MV4-11, at 100 nM, 16 hours, vs DMSO, read-out: Percent degradation SMARCA4. The protocol: as §1, §2

Counter-ions that a name gives are not always drawn.

T1 sequence (P51531 whole entry): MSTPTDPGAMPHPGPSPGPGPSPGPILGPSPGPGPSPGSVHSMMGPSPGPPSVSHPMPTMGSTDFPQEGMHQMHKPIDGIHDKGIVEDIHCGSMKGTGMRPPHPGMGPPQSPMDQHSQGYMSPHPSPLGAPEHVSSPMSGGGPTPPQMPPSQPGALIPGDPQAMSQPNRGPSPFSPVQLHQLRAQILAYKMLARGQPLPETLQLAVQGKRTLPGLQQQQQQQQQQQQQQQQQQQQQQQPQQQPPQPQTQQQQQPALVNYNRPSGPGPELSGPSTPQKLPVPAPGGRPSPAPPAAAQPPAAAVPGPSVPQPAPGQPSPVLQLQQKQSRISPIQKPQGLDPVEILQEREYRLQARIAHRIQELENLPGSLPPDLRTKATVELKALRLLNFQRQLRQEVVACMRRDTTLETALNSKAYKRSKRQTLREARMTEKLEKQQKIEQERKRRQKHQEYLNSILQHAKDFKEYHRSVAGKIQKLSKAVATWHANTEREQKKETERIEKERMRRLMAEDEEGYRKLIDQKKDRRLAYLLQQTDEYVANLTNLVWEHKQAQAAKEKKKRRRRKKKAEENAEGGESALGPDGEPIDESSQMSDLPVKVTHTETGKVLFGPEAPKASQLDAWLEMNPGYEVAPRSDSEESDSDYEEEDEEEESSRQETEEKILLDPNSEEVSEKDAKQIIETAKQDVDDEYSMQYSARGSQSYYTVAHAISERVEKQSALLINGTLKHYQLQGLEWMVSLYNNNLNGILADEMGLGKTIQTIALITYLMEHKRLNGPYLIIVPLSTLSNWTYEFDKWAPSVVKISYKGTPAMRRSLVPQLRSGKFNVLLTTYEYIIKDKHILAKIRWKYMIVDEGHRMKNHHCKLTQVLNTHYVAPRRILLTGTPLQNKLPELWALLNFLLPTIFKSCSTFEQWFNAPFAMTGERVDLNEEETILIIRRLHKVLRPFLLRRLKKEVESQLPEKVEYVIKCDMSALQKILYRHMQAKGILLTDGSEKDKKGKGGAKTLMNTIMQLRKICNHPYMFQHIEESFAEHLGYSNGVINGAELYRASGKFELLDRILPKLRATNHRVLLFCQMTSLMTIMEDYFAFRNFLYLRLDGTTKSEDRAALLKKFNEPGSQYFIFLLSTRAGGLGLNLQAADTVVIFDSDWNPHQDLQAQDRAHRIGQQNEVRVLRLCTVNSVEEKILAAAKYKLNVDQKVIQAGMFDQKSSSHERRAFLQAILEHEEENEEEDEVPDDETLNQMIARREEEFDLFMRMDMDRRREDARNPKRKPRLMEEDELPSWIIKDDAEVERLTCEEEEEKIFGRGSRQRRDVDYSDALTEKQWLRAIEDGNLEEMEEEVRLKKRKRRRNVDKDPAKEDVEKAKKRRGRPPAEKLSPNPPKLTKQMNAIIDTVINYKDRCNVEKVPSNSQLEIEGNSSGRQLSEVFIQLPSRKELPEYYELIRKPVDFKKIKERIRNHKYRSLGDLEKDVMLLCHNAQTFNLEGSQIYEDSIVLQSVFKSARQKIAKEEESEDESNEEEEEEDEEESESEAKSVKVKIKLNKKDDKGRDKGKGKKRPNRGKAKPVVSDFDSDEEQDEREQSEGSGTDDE
T2 sequence (P51532 whole entry): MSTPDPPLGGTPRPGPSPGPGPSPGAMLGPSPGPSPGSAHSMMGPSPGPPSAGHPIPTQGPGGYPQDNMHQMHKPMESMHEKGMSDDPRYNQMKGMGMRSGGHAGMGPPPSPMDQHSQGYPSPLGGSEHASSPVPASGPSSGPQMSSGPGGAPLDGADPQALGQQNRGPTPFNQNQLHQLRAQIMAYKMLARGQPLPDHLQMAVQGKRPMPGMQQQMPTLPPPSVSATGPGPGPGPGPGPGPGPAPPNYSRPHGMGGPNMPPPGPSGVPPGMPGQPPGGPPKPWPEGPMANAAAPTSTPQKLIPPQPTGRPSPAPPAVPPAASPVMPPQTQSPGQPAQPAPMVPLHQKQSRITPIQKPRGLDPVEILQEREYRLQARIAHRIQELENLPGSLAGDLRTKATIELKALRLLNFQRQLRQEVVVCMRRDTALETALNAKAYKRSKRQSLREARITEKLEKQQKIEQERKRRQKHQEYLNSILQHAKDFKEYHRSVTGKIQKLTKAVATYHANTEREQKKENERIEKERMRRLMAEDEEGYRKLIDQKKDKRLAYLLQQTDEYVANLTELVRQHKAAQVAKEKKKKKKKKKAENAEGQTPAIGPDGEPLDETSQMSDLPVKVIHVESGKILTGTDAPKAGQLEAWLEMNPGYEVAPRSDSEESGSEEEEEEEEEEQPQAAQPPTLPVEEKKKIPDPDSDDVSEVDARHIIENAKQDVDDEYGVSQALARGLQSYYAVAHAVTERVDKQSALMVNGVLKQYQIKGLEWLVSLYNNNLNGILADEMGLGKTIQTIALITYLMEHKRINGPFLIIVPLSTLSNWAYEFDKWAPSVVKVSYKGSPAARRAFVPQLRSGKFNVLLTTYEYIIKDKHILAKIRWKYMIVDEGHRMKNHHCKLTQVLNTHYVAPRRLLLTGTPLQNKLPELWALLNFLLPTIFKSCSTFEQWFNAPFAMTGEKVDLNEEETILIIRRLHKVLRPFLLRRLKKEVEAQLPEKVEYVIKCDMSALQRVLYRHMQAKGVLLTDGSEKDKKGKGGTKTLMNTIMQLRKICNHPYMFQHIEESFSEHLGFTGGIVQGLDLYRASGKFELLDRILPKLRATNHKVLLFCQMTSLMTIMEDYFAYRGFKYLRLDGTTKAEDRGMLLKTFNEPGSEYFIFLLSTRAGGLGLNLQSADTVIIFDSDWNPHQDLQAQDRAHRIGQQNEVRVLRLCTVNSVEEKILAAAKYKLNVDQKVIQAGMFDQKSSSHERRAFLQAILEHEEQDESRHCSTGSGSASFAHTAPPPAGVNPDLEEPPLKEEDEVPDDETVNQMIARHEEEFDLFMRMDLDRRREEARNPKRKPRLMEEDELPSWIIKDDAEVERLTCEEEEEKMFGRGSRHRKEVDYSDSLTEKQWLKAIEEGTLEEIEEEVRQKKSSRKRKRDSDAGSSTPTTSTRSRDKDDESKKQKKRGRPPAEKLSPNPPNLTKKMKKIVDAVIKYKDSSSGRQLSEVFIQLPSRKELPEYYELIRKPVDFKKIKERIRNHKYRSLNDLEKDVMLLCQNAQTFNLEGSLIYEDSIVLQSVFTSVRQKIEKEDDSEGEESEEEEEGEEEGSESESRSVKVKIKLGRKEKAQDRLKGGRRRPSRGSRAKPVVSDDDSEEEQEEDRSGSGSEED

Consider `Cn1c2cc(N3CCC(N4CCC(c5ccc(C6CCC(=O)NC6=O)cc5)CC4)CC3)ccc2n2c3cccc(Br)c3c(=O)nc12` (stereo not shown) [Compound 17, 3-(4-(1′-(4-bromo-7-methyl-5-oxo-5,7-dihydrobenzo[4,5]imidazo[1,2-a]quinazolin-9-yl)-[1,4′-bipiperidin]-4-yl)phenyl)piperidine-2,6-dione], for which the EC50 in experiment [1] and in experiment [2] was less than 10 nM throughout. Also, the values for the inhibition at 0.1 µM in experiment [3] and in experiment [4] were 68% and 24%, respectively.

In the case of `Cn1c2cc(N3CCC(N4CCC(c5ccc(C6CCC(=O)NC6=O)cc5)CC4)CC3)ccc2n2c3cccc(Cl)c3c(=O)nc12` (stereo not shown) [Compound 18, 3-(4-(1′-(4-chloro-7-methyl-5-oxo-5,7-dihydrobenzo[4,5]imidazo[1,2-a]quinazolin-9-yl)-[1,4′-bipiperidin]-4-yl)phenyl)piperidine-2,6-dione], the EC50 in experiment [1] and in experiment [2] was less than 10 nM each time. For the same molecule, the inhibition at 0.1 µM in experiment [3] was found to be 98%; in experiment [4], 95%.

For `Cn1c2cc(N3CCC(N4CCC(c5ccc(C6CCC(=O)NC6=O)cc5)CC4)CC3)ccc2n2c3cccc(N)c3c(=O)nc12` (stereo not shown) [Compound 20, 3-(4-(1′-(4-amino-7-methyl-5-oxo-5,7-dihydrobenzo[4,5]imidazo[1,2-a]quinazolin-9-yl)-[1,4′-bipiperidin]-4-yl)phenyl)piperidine-2,6-dione], the figures for the EC50 in experiment [1] and in experiment [2] were more than 100 nM and 10 to 100 nM, respectively. For the same molecule, the inhibition at 0.1 µM in experiment [3] was 80%; in experiment [4], 81%.

Take `CC(C)n1c2cc(N3CCC(N4CCC(c5ccc(C6CCC(=O)NC6=O)cc5)CC4)CC3)ccc2n2c3cccc(N)c3c(=O)nc12` (stereo not shown) [Compound 21, 3-(4-(1′-(4-amino-7-isopropyl-5-oxo-5,7-dihydrobenzo[4,5]imidazo[1,2-a]quinazolin-9-yl)-[1,4′-bipiperidin]-4-yl)phenyl)piperidine-2,6-dione]: the EC50 is more than 100 nM in experiment [1] and 10 to 100 nM in experiment [2]. The inhibition at 0.1 µM was determined as 86% in experiment [3] and 75% in experiment [4].

Turning to `O=C1CCC(c2ccc(C3CCN(C4CCN(c5ccc6c(c5)n(C5CCCC5)c5nc(=O)c7c(Cl)cccc7n65)CC4)CC3)cc2)C(=O)N1` (stereo not shown) [Compound 22, 3-(4-(1′-(4-chloro-7-cyclopentyl-5-oxo-5,7-dihydrobenzo[4,5]imidazo[1,2-a]quinazolin-9-yl)-[1,4′-bipiperidin]-4-yl)phenyl)piperidine-2,6-dione-HCl salt], the EC50 in experiment [1] and in experiment [2] was less than 10 nM in each case. Besides, the inhibition at 0.1 µM in experiment [3] was found to be 89%; in experiment [4] it was 56%.

Regarding `O=C1CCC(Nc2ccc(C3CCN(C4CCN(c5ccc6c(c5)n(C5CCCC5)c5nc(=O)c7c(Cl)cccc7n65)CC4)CC3)c(F)c2)C(=O)N1` (stereo not shown) [Compound 23, 3-((4-(1′-(4-chloro-7-cyclopentyl-5-oxo-5,7-dihydrobenzo[4,5]imidazo[1,2-a]quinazolin-9-yl)-[1,4′-bipiperidin]-4-yl)-3-fluorophenyl)amino)piperidine-2,6-dione-HCl salt], the EC50 in experiment [1] and in experiment [2] was less than 10 nM each time. Further, the inhibition at 0.1 µM was found to be 99% in experiment [3] and 98% in experiment [4].

Consider `Nc1cccc2c1c(=O)nc1n(C3CCCC3)c3cc(N4CCC(N5CCC(c6ccc(C7CCC(=O)NC7=O)cc6)CC5)CC4)ccc3n21` (stereo not shown) [Compound 25, 3-(4-(1′-(4-amino-7-cyclopentyl-5-oxo-5,7-dihydrobenzo[4,5]imidazo[1,2-a]quinazolin-9-yl)-[1,4′-bipiperidin]-4-yl)phenyl)piperidine-2,6-dione-HCl salt], for which the EC50 was 10 to 100 nM in experiment [1] and less than 10 nM in experiment [2]. The inhibition at 0.1 µM in experiment [3] turned out to be 67%; in experiment [4], 33%.

`Nc1cccc2c1c(=O)nc1n(C3CCCC3)c3cc(N4CCC(N5CCN(c6ccc(C7CCC(=O)NC7=O)cc6)CC5)CC4)ccc3n21` (stereo not shown) [Compound 26, 3-(4-(4-(1-(4-amino-7-cyclopentyl-5-oxo-5,7-dihydrobenzo[4,5]imidazo[1,2-a]quinazolin-9-yl)piperidin-4-yl)piperazin-1-yl)phenyl)piperidine-2,6-dione-HCl salt]: the concentration for a half-maximal effect (EC50) in experiment [1] is more than 100 nM; in experiment [2], 10 to 100 nM. In addition, the inhibition at 0.1 µM in experiment [3] came out at 68%; in experiment [4], 33%.

For `CC(C)n1c2cc(N3CCC(N4CCC(c5ccc(NC6CCC(=O)NC6=O)cc5F)CC4)CC3)ccc2n2c3cccc(Cl)c3c(=O)nc12` (stereo not shown) [Compound 29, 3-((4-(1′-(4-chloro-7-isopropyl-5-oxo-5,7-dihydrobenzo[4,5]imidazo[1,2-a]quinazolin-9-yl)-[1,4′-bipiperidin]-4-yl)-3-fluorophenyl)amino)piperidine-2,6-dione-HCl salt], the EC50 in experiment [1] and in experiment [2] was less than 10 nM throughout. Also, the results for the inhibition at 0.1 µM in experiment [3] and in experiment [4] were 96% and 97%, respectively.

With `O=C1CCC(N2Cc3cc(N4CCN(C5CCN(c6ccc7c(c6)n(C6CCCC6)c6nc(=O)c8c(Cl)cccc8n76)CC5)CC4)ccc3C2=O)C(=O)N1` (stereo not shown) [Compound 30, 3-(5-(4-(1-(4-chloro-7-cyclopentyl-5-oxo-5,7-dihydrobenzo[4,5]imidazo[1,2-a]quinazolin-9-yl)piperidin-4-yl)piperazin-1-yl)-1-oxoisoindolin-2-yl)piperidine-2,6-dione-HCl salt], the figures for the EC50 in experiment [1] and in experiment [2] were more than 100 nM and less than 10 nM, respectively. Moreover, the figures for the inhibition at 0.1 µM in experiment [3] and in experiment [4] were 90% and 64%, respectively.

As for `Cn1c2cc(N3CCC(N4CCN(c5ccc(C6CCC(=O)NC6=O)cc5)CC4)CC3)ccc2n2c3cccc(N)c3c(=O)nc12` (stereo not shown) [Compound 32, 3-(4-(4-(1-(4-amino-7-methyl-5-oxo-5,7-dihydrobenzo[4,5]imidazo[1,2-a]quinazolin-9-yl)piperidin-4-yl)piperazin-1-yl)phenyl)piperidine-2,6-dione-HCl salt], the EC50 in experiment [1] and in experiment [2] was more than 100 nM in each case. The inhibition at 0.1 µM in experiment [3] came to 59%; in experiment [4], 38%.

`O=C1CCC(Nc2ccc(N3CCN(C4CCN(c5ccc6c(c5)n(C5CCCC5)c5nc(=O)c7c(Cl)cccc7n65)CC4)CC3)c(F)c2)C(=O)N1` (stereo not shown) [Compound 35, 3-((4-(4-(1-(4-chloro-7-cyclopentyl-5-oxo-5,7-dihydrobenzo[4,5]imidazo[1,2-a]quinazolin-9-yl)piperidin-4-yl)piperazin-1-y1)-3-fluorophenyl)amino)piperidine-2,6-dione-TFA salt]: the half-maximal effective concentration (EC50) in experiment [1] was more than 100 nM; in experiment [2] it was less than 10 nM. Besides, the values for the inhibition at 0.1 µM in experiment [3] and in experiment [4] were 98% and 91%, respectively.

Consider `Cn1c2cc(N3CCC(N4CCC(c5ccc(NC6CCC(=O)NC6=O)cc5F)CC4)CC3)ccc2n2c3cccc(Cl)c3c(=O)nc12` (stereo not shown) [Compound 36, 3-((4-(1′-(4-chloro-7-methyl-5-oxo-5,7-dihydrobenzo[4,5]imidazo[1,2-a]quinazolin-9-yl)-[1,4′-bipiperidin]-4-yl)-3-fluorophenyl)amino)piperidine-2,6-dione], for which the 50% effective concentration (EC50) in experiment [1] was more than 100 nM; in experiment [2] it was less than 10 nM. In addition, the inhibition at 0.1 µM in experiment [3] came to 99%; in experiment [4] it was 97%.

Usually EC50 stands for the concentration giving half of the maximal effect. A high value points to weaker potency.
